Earlier results in US20260345619A1 (Principia Biopharma Inc., priority 2023, published 2026).

Conditions: healthy volunteers; cited from earlier work

SMILES: CC(C)(C=C(C#N)C(=O)N1CCC[C@@H](n2nc(-c3ccc(Oc4ccccc4)cc3F)c3c(N)ncnc32)C1)N1CCN(C2COC2)CC1 (mixture of isomers) [rilzabrutinib, (R)-2-[3-[4-amino-3-(2-fluoro-4-phenoxy-phenyl)pyrazolo[3,4-d]pyrimidin-1-yl]piperidine-1-carbonyl]-4-methyl-4-[4-(oxetan-3-yl)piperazin-1-yl]pent-2-enenitrile]
- discontinuation due to an adverse event: no participants discontinued treatment due to an adverse event
- most commonly reported adverse events: gastrointestinal adverse events, including nausea/vomiting and diarrhea
- serious adverse events or deaths: No serious adverse events or deaths were reported
